US12594255B2, “Lipids with odd number of carbon atoms and their use as pharmaceutical composition or nutritional supplement” (SunRegen Healthcare AG, priority 2016, dated 2026)
Like-named read-outs stand apart in the source and are kept apart here.

Assays:
[1] = system: human iPSC-derived neurons challenged with Aβ1-42 oligomers (AβO); experiment: AβO-induced neuronal death in human iPSC-derived neurons, NSE ELISA assay; type: cell-based; conditions: 10000 nM; for viability at 10 µM: Homo sapiens, Neuron, read-out: cell viability
Protocol: iPSCs were treated at 0 h (T0) with vehicle or 1 μM AβO. Different concentrations of Compound C or 0.1 μM HNG (used as positive control) were added concomitantly to AβO at 0 h (T0), 3 h (T3) or 6 h (T6) after AβO. Then, were incubated for 24 h and cell viability was determined using the NSE ELISA assay (n=6 determinations per condition, 1 independent experiment), Data are represented as % of vehicle control (Mean±SD). […]
To determine whether compound C might rescue neuronal death in human iPSC-derived neurons challenged with Aβ1-42 oligomers (AβO). In this cellular model, AβO induce a dramatic neuronal death that could be monitored by the level of neuronal specific enolase (NSE) using a specific ELISA assay. Compound C will be added at different time points (concomitantly and after AMBO) with the aim to identify rescuing effects.
Cells (HIP-Neuronal progenitors, GlobalStem, Cat #GSC-4312, Lot #20010260) are plated in 96-well plates at a density of 60.000 cells per well and culture. Before experiments, cells are matured for five weeks and kept at 37° C. in a humidified 5% CO2 atmosphere.
Cells are incubated with vehicle or 1 μM AβO in the absence or presence of different concentrations (i.e. 10, 100, 1000 and 10000 nM) of Compound C added concomitantly to AβO (T0), 3 h after AβO (T3), or 6 h after AβO (T6). Cells are incubated for 24 h in a final volume of 100 μL per well. For positive control, cells are treated similarly in the presence of 0.1 μM HNG (i.e. S14G variant of humanin peptide). In addition, neuronal loss is monitored using the detection of neuronal specific enolase (NSE) by ELISA assay according to supplier's recommendations (CloneCloud, Cat #SEA537Hu). A total of three data points per experimental condition will be generated here. […]

[2] = Solubility of compound C in stock solutions; type: physicochemical

CCCCCCCCCCCCCCC(=O)OCC(COC(=O)CCCCCCCCCCCCCC)OC(=O)CCCCCCCCCCCCCC [Compound C, tripentadecanoin]
% of neuroprotection and anti-apoptotic effects ([1]; T0): 53.7% | % of neuroprotection and anti-apoptotic effects ([1]; T3): 90.8% | % of neuroprotection and anti-apoptotic effects ([1]; T6): 78.9% | viability at 10 µM ([1]; T0): 76.7 ± 2.7% | viability at 10 µM ([1]; T3): 94.2 ± 7.1% | viability at 10 µM ([1]; T6): 88.8 ± 1.3% | solubility in stock solutions [2]: not fully soluble
